Test results taken from patent US20090185973A1, “METHODS, COMPOSITIONS, UNIT DOSAGE FORMS, AND KITS FOR PHARMACOLOGIC STRESS TESTING WITH REDUCED SIDE EFFECTS” (ADENOBIO N.V., priority 2008, published 2009).
Where “and” joins values, the source holds several entries; their conditions need not be identical. Equal values may be shown once.

Experiments:
[1] = tested on: patients suffering from ischemic heart disease; assay: Transthoracic doppler echocardiography (TTDE) blood flow velocity in LAD, sequential administration (Example 1); assay type: in vivo, human; conditions: mean; for Mean velocity Min / Peak velocity Min: at rest (basal); for Mean velocity Max / Peak velocity Max: under stress
Procedure: In the combined administration, each of the two agents was administered at a dosage lower than its clinically preferred dosage when used as a single agent for myocardial perfusion imaging. Effects were measured using noninvasive transthoracic doppler echocardiography (TTDE).
Primary efficacy end-points were peak and mean diastolic flow velocities (measured as reflecting coronary blood flow values). The secondary end-point was patient tolerance to the procedure. The protocol was designed as follows.
Forty (40) consecutive patients suffering from ischemic heart disease were enrolled. Each patient served as their own control.
[…] Total doses are between about 4-6% of the lowest single-agent total dose of dipyridamole (i.e., 0.56 mg/kg, infused over a total of 4 minutes).
This dose is half the standard single-agent dosage rate of 140 μg/kg/min.

[2] = tested on: patients with normal coronary reserve; assay: Priming dose effect: time to peak and return to baseline, concurrent administration (Example 4); assay type: in vivo, human; conditions: for Time to peak, individual patients / Return to BL, individual patients / Return to BL, Mean / Return to BL, Total / Time to peak, Mean / Time to peak, Total: N = 6; for Time to peak, individual patients / Return to BL, individual patients: listed as ADE; for Time to peak (near maximal hyperemia): adenosine alone vs concurrent combination without priming dose, on average
Source text: As a test, a low priming dose of dipyridamole was combined with the concurrent administration of the two drugs to determine whether the time to peak and the occurrence of near maximal hyperaemia could be accelerated, especially when infusion time is reduced by, for example, one minute.

[3] = before infusion, DIP5: SC = dipyridamole 28 μg/kg + adenosine 70 μg/kg/min, ADE = adenosine 140 μg/kg/min, 30 patients
[4] = DIP4: SC = dipyridamole 35 μg/kg + adenosine 70 μg/kg/min, ADE = adenosine 140 μg/kg/min, 5 patients
[5] = DIP6: SC = dipyridamole 23 μg/kg + adenosine 70 μg/kg/min, ADE = adenosine 140 μg/kg/min, 5 patients
[6] = DIP4: SC = dipyridamole 35 μg/kg IV bolus then adenosine 70 μg/kg/min, ADE = adenosine alone 140 μg/kg/min, 5 patients
[7] = DIP5: SC = dipyridamole 28 μg/kg IV bolus then adenosine 70 μg/kg/min 3 min, ADE = adenosine alone 140 μg/kg/min 3 min, 30 patients
[8] = DIP6: SC = dipyridamole 23 μg/kg IV bolus then adenosine 70 μg/kg/min, ADE = adenosine alone 140 μg/kg/min, 5 patients
[9] = cumulated, all 40 patients: SC = dipyridamole 23, 28 or 35 μg/kg bolus then adenosine 70 μg/kg/min, ADE = adenosine alone 140 μg/kg/min
[10] = ADE vs C concurrent with dipyridamole priming dose (0.1 mg)
[11] = with dipyridamole priming dose (0.1 mg)
[12] = without dipyridamole priming dose

Structure (SMILES): Nc1ncnc2c1ncn2[C@@H]1O[C@H](CO)[C@@H](O)[C@H]1O [adenosine]
- Mean velocity Min [1, 3]: 23.1 cm/s
- Peak velocity Min [1, 3]: 30.6 cm/sec
- Mean velocity Min [1, 4]: 22.2 cm/s
- Peak velocity Min [1, 4]: 28 cm/sec
- Mean velocity Min [1, 5]: 28.2 cm/s
- Peak velocity Min [1, 5]: 37.6 cm/sec
- Mean velocity Min ([1]; cumulated, all 40 patients): 23.7 cm/s
- Peak velocity Min ([1]; cumulated, all 40 patients): 31.2 cm/sec
- Mean velocity Max [1, 6]: 60.4 cm/s
- Peak velocity Max [1, 6]: 80 cm/sec
- Mean velocity Max [1, 7]: 61.4 cm/s
- Peak velocity Max [1, 7]: 82.6 cm/sec
- Mean velocity Max [1, 8]: 80.2 cm/s
- Peak velocity Max [1, 8]: 107 cm/sec
- Mean velocity Max [1, 9]: 63.6 cm/s
- Peak velocity Max [1, 9]: 85.3 cm/sec
- Time to peak, individual patients ([2]; ADE 140 μg/kg/min vs C (Dip 10 μg/kg/min + Ade 70 μg/kg/min) concurrent without dipyridamole priming dose): 56 s and 120 s and 50 s and 85 s and 80 s and 75 s
- Return to BL, individual patients ([2]; ADE 140 μg/kg/min vs C concurrent without dipyridamole priming dose): 75 seconds and 60 seconds (3×) and 100 seconds and 48 seconds
- Return to BL, individual patients [2, 10]: 55 s and 65 s and 54 s and 67 s and 48 s and 60 s
- Time to peak, individual patients [2, 10]: 74 s and 55 s and 45 s and 44 s and 30 s and 40 s
- Time to peak (near maximal hyperemia) [2]: about 1 minute
- Time to peak (near maximal hyperemia) ([2]; listed as Adenoscan): ~1 min
- Return to BL, Mean [2, 11]: 58.1 s
- Return to BL, Total [2, 11]: 349 s
- Time to peak, Mean [2, 11]: 48 s
- Time to peak, Total [2, 11]: 288 s
- Return to BL, Mean [2, 12]: 67.1 s
- Return to BL, Total [2, 12]: 403 s
- Time to peak, Mean [2, 12]: 69.3 s
- Time to peak, Total [2, 12]: 416 s
